Results taken from patent US20070128217A1 (priority 2003, published 2007).

Tests used:
[1] = test system: antibodies in sera from SARS patients (sera 1a, 1b, 2, 6, 37, 62, London, SARS-yellow, SARS-green); assay type: binding, human; design: Binding of serum 6 to linear peptides of protein X1 of SARS-CoV Urbani / Binding of serum 37 to linear peptides of protein X1 of SARS-CoV Urbani / Binding of serum 6 to looped/cyclic peptide (PEPSCAN-ELISA) / Binding of serum 37 to looped/cyclic peptide (PEPSCAN-ELISA) / Binding of serum 37 to looped/cyclic peptides of protein X1 of SARS-CoV Urbani / Binding of serum 6 to linear peptides of protein X2 / Binding of serum 37 to linear peptides of protein X2 / Binding of serum 37 to looped/cyclic peptides of protein X2 of SARS-CoV Urbani / Binding of serum 6 to linear peptides of protein M of SARS-CoV Urbani / Binding of serum 37 to linear peptides of protein M of SARS-CoV Urbani / Binding of serum 6 to looped/cyclic peptides of protein M of SARS-CoV Urbani / Binding of serum 37 to looped/cyclic peptides of protein M of SARS-CoV Urbani / Binding of serum 6 to linear peptides of protein X3 of SARS-CoV Urbani / Binding of serum 37 to linear peptides of protein X3 of SARS-CoV Urbani / Binding of serum 37 to looped/cyclic peptides of protein X3 of SARS-CoV Urbani / Binding of serum 6 to linear peptides of protein X4 of SARS-CoV Urbani / Binding of serum 37 to linear peptides of protein X4 of SARS-CoV Urbani / Binding of serum 37 to looped/cyclic peptides of protein X4 of SARS-CoV Urbani / Binding of serum 6 to linear peptides of protein X5 of SARS-CoV Urbani / Binding of serum 37 to linear peptides of protein X5 of SARS-CoV Urbani / Binding of serum 37 to looped/cyclic peptides of protein X5 of SARS-CoV Urbani / Binding of serum 6 to linear peptides of protein N of SARS-CoV Urbani / Binding of serum 37 to linear peptides of protein N of SARS-CoV Urbani / Binding of serum 6 to linear peptide (PEPSCAN-ELISA) / Binding of serum 1a to looped/cyclic peptides of protein N of SARS-CoV Urbani / Binding of serum 1b to looped/cyclic peptides of protein N of SARS-CoV Urbani / Binding of serum 2 to looped/cyclic peptides of protein N of SARS-CoV Urbani / Binding of serum 6 to looped/cyclic peptides of protein N of SARS-CoV Urbani / Binding of serum 37 to looped/cyclic peptides of protein N of SARS-CoV Urbani / Binding of serum 62 to looped/cyclic peptides of protein N of SARS-CoV Urbani / Binding of serum London to looped/cyclic peptides of protein N of SARS-CoV Urbani / Binding of serum SARS-green to looped/cyclic peptides of protein N of SARS-CoV Urbani: unit not given here
[2] = test system: control sera (pooled serum of ten healthy LUMC hospital workers; commercial negative donor pooled serum from the Dutch bloodbank); assay type: binding, human; design: Binding of Control serum LUMC to linear peptides / Binding of Control serum Blood-bank to linear peptides / Binding of Control serum LUMC to looped peptides / Binding of Control Serum Blood-Bank to Looped peptides / Binding of Control serum LUMC to linear peptides of the protein M of SARS-CoV Urbani / Binding of Control serum Blood-bank to linear peptides of the protein M of SARS-CoV Urbani / Binding of Control serum LUMC to looped peptides of the protein M of SARS-CoV Urbani / Binding of Control Serum Blood-Bank to Looped peptides of the protein M of SARS-CoV Urbani: unit not given here
[3] = test system: rabbit serum obtained by immunizing a rabbit with the SARS-CoV strain Frankfurt 1; assay type: binding; design: Binding of a rabbit serum to linear peptides / Binding of a rabbit serum to looped peptides / Rabbit serum linear peptides / Rabbit serum looped peptides / Binding of a rabbit serum to linear peptides of protein N of SARS-CoV Urbani (Rabbit serum linear peptides) / Binding of a rabbit serum to looped/cyclic peptides of protein N of SARS-CoV Urbani (Rabbit serum looped peptides): unit not given here
[4] = test system: recombinant human anti-SARS-CoV antibody 03-018; assay type: binding; design: Binding of antibody 03-018 to linear peptides of the N protein of SARS-CoV Urbani / Binding of antibody 03-018 to looped/cyclic peptides of the N protein of SARS-CoV Urbani: unit not given here

Sequence: KKKKTDEAQPLPQRQ
- Binding of serum 1a to linear peptides of protein N of SARS-CoV Urbani [1]: 0.3
- Binding of serum 1a to looped/cyclic peptides of protein N of SARS-CoV Urbani [1]: 0.2
- Binding of serum 1b to linear peptides of protein N of SARS-CoV Urbani [1]: 0.1
- Binding of serum 1b to looped/cyclic peptides of protein N of SARS-CoV Urbani [1]: 0.1
- Binding of serum 2 to linear peptides of protein N of SARS-CoV Urbani [1]: 0.3
- Binding of serum 2 to looped/cyclic peptides of protein N of SARS-CoV Urbani [1]: 0.3
- Binding of serum 6 to linear peptides of protein N of SARS-CoV Urbani [1]: 0.3
- Binding of serum 6 to looped/cyclic peptides of protein N of SARS-CoV Urbani [1]: 0.1
- Binding of serum 37 to linear peptides of protein N of SARS-CoV Urbani [1]: 0.7
- Binding of serum 37 to looped/cyclic peptides of protein N of SARS-CoV Urbani [1]: 0.4
- Binding of serum 62 to linear peptides of protein N of SARS-CoV Urbani [1]: 0.7
- Binding of serum 62 to looped/cyclic peptides of protein N of SARS-CoV Urbani [1]: 0.3
- Binding of serum London to linear peptides of protein N of SARS-CoV Urbani [1]: 0.8
- Binding of serum London to looped/cyclic peptides of protein N of SARS-CoV Urbani [1]: 0.3
- Binding of serum SARS-green to linear peptides of protein N of SARS-CoV Urbani [1]: 0.6
- Binding of serum SARS-green to looped/cyclic peptides of protein N of SARS-CoV Urbani [1]: 0.1
- Binding of serum SARS-yellow to linear peptides of protein N of SARS-CoV Urbani [1]: 0.9
- Binding of serum SARS-yellow to looped/cyclic peptides of protein N of SARS-CoV Urbani [1]: 0.2
- Control Serum Blood-Bank Looped peptides [2]: 0.6
- Control serum Blood-bank linear peptides [2]: 1.0
- Control serum LUMC linear peptides [2]: 0.9
- Control serum LUMC looped peptides [2]: 0.4
- Binding of a rabbit serum to linear peptides of protein N of SARS-CoV Urbani (Rabbit serum linear peptides) [3]: 0.2
- Binding of a rabbit serum to looped/cyclic peptides of protein N of SARS-CoV Urbani (Rabbit serum looped peptides) [3]: 0.1
- Binding of antibody 03-018 to linear peptides of the N protein of SARS-CoV Urbani [4]: 0.1
- Binding of antibody 03-018 to looped/cyclic peptides of the N protein of SARS-CoV Urbani [4]: 0.2

Sequence: KKKTDEAQPLPQRQK
- Binding of serum 1a to linear peptides of protein N of SARS-CoV Urbani [1]: 0.2
- Binding of serum 1a to looped/cyclic peptides of protein N of SARS-CoV Urbani [1]: 0.2
- Binding of serum 1b to linear peptides of protein N of SARS-CoV Urbani [1]: 0.1
- Binding of serum 1b to looped/cyclic peptides of protein N of SARS-CoV Urbani [1]: 0.1
- Binding of serum 2 to linear peptides of protein N of SARS-CoV Urbani [1]: 0.2
- Binding of serum 2 to looped/cyclic peptides of protein N of SARS-CoV Urbani [1]: 0.1
- Binding of serum 6 to linear peptides of protein N of SARS-CoV Urbani [1]: 0.7
- Binding of serum 6 to looped/cyclic peptides of protein N of SARS-CoV Urbani [1]: 0.0
- Binding of serum 37 to linear peptides of protein N of SARS-CoV Urbani [1]: 0.9
- Binding of serum 37 to looped/cyclic peptides of protein N of SARS-CoV Urbani [1]: 0.3
- Binding of serum 62 to linear peptides of protein N of SARS-CoV Urbani [1]: 0.6
- Binding of serum 62 to looped/cyclic peptides of protein N of SARS-CoV Urbani [1]: 0.2
- Binding of serum London to linear peptides of protein N of SARS-CoV Urbani [1]: 1.1
- Binding of serum London to looped/cyclic peptides of protein N of SARS-CoV Urbani [1]: 0.3
- Binding of serum SARS-green to linear peptides of protein N of SARS-CoV Urbani [1]: 0.4
- Binding of serum SARS-green to looped/cyclic peptides of protein N of SARS-CoV Urbani [1]: 0.0
- Binding of serum SARS-yellow to linear peptides of protein N of SARS-CoV Urbani [1]: 1.0
- Binding of serum SARS-yellow to looped/cyclic peptides of protein N of SARS-CoV Urbani [1]: 0.0
- Control Serum Blood-Bank Looped peptides [2]: 0.4
- Control serum Blood-bank linear peptides [2]: 0.9
- Control serum LUMC linear peptides [2]: 0.8
- Control serum LUMC looped peptides [2]: 0.3
- Binding of a rabbit serum to linear peptides of protein N of SARS-CoV Urbani (Rabbit serum linear peptides) [3]: 0.2
- Binding of a rabbit serum to looped/cyclic peptides of protein N of SARS-CoV Urbani (Rabbit serum looped peptides) [3]: 0.1
- Binding of antibody 03-018 to linear peptides of the N protein of SARS-CoV Urbani [4]: 0.1
- Binding of antibody 03-018 to looped/cyclic peptides of the N protein of SARS-CoV Urbani [4]: 0.2

Sequence: KKSAAEASKKPRQKR
- Binding of serum 1a to looped/cyclic peptides of protein N of SARS-CoV Urbani [1]: 0.2
- Binding of serum 1b to looped/cyclic peptides of protein N of SARS-CoV Urbani [1]: 0.1
- Binding of serum 2 to looped/cyclic peptides of protein N of SARS-CoV Urbani [1]: 0.3
- Binding of serum 6 to looped/cyclic peptides of protein N of SARS-CoV Urbani [1]: 0.2
- Binding of serum 37 to looped/cyclic peptides of protein N of SARS-CoV Urbani [1]: 0.5
- Binding of serum 62 to looped/cyclic peptides of protein N of SARS-CoV Urbani [1]: 0.3
- Binding of serum London to looped/cyclic peptides of protein N of SARS-CoV Urbani [1]: 0.4
- Binding of serum SARS-green to looped/cyclic peptides of protein N of SARS-CoV Urbani [1]: 0.2
- Binding of serum SARS-yellow to looped/cyclic peptides of protein N of SARS-CoV Urbani [1]: 0.3
- Recognition of the peptide by sera of SARS-CoV infected individuals, and form (linear, looped/cyclic) in which it is recognized [1]: recognized in linear form
- Binding of Control Serum Blood-Bank to Looped peptides [2]: 0.5
- Binding of Control serum Blood-bank to linear peptides [2]: 1.0
- Binding of Control serum LUMC to linear peptides [2]: 1.0
- Binding of Control serum LUMC to looped peptides [2]: 0.5
- Binding of a rabbit serum to linear peptides of protein N of SARS-CoV Urbani (Rabbit serum linear peptides) [3]: 0.4
- Binding of a rabbit serum to looped/cyclic peptides of protein N of SARS-CoV Urbani (Rabbit serum looped peptides) [3]: 0.8
- Binding of antibody 03-018 to linear peptides of the N protein of SARS-CoV Urbani [4]: 0.1
- Binding of antibody 03-018 to looped/cyclic peptides of the N protein of SARS-CoV Urbani [4]: 0.2

Sequence: KQPTVTLLPAADMDD
- Binding of serum 1a to linear peptides of protein N of SARS-CoV Urbani [1]: 0.3
- Binding of serum 1a to looped/cyclic peptides of protein N of SARS-CoV Urbani [1]: 0.3
- Binding of serum 1b to linear peptides of protein N of SARS-CoV Urbani [1]: 0.2
- Binding of serum 1b to looped/cyclic peptides of protein N of SARS-CoV Urbani [1]: 0.2
- Binding of serum 2 to linear peptides of protein N of SARS-CoV Urbani [1]: 0.2
- Binding of serum 2 to looped/cyclic peptides of protein N of SARS-CoV Urbani [1]: 0.2
- Binding of serum 6 to linear peptides of protein N of SARS-CoV Urbani [1]: 0.2
- Binding of serum 6 to looped/cyclic peptides of protein N of SARS-CoV Urbani [1]: 0.0
- Binding of serum 37 to linear peptides of protein N of SARS-CoV Urbani [1]: 1.2
- Binding of serum 37 to looped/cyclic peptides of protein N of SARS-CoV Urbani [1]: 0.4
- Binding of serum 62 to linear peptides of protein N of SARS-CoV Urbani [1]: 0.8
- Binding of serum 62 to looped/cyclic peptides of protein N of SARS-CoV Urbani [1]: 0.3
- Binding of serum London to linear peptides of protein N of SARS-CoV Urbani [1]: 0.6
- Binding of serum London to looped/cyclic peptides of protein N of SARS-CoV Urbani [1]: 0.2
- Binding of serum SARS-green to linear peptides of protein N of SARS-CoV Urbani [1]: 2.4
- Binding of serum SARS-green to looped/cyclic peptides of protein N of SARS-CoV Urbani [1]: 0.6
- Binding of serum SARS-yellow to linear peptides of protein N of SARS-CoV Urbani [1]: 1.1
- Binding of serum SARS-yellow to looped/cyclic peptides of protein N of SARS-CoV Urbani [1]: 0.3
- Control Serum Blood-Bank Looped peptides [2]: 0.4
- Control serum Blood-bank linear peptides [2]: 0.7
- Control serum LUMC linear peptides [2]: 0.7
- Control serum LUMC looped peptides [2]: 0.3
- Binding of a rabbit serum to linear peptides of protein N of SARS-CoV Urbani (Rabbit serum linear peptides) [3]: 0.1
- Binding of a rabbit serum to looped/cyclic peptides of protein N of SARS-CoV Urbani (Rabbit serum looped peptides) [3]: 0.1
- Binding of antibody 03-018 to linear peptides of the N protein of SARS-CoV Urbani [4]: 0.1
- Binding of antibody 03-018 to looped/cyclic peptides of the N protein of SARS-CoV Urbani [4]: 0.2
